Measurements published in patent US20250288572A1, “COMPOSITIONS AND METHODS FOR TREATING PULMONARY VASCULAR DISEASE” (UNIVERSITY OF PITTSBURGH-OF THE COMMONWEALTH SYSTEM OF …, priority 2022, published 2025).
“Also recorded” adds a separate entry of the source.

What was measured:
[1] = tested on: ISCU; assay: Immunoblot and densitometry of ISCU and GSTP1 in PASMCs; format: cell-based, human; details: IL-6/sIL-6R + hypoxia, BRD2889 1 uM
Description: (§1) BRD2889 (1 uM) vs. vehicle control were added, as indicated, and placed into a hypoxia chamber for 24 h. The hypoxia chamber (modular incubator chamber) was obtained from Billups-Rothenberg Inc. (Del Mar, Cali) and placed in regulated CO2 incubator at 37° C.
(§2) Immunoblot and densitometry: Cells were lysed in RIPA buffer (Sigma) along with 1× protease inhibitor cocktail (Sigma). Protein lysate was resolved by gradient 4%-15% SDS-PAGE gels and transferred onto a 0.2 μm PVDF membrane (Bio-Rad). Membranes were blocked in 5% non-fat milk in 1×PBST buffer for one hour at room temperature. Later, they were incubated in the presence of the primary antibody overnight at 4° C., and then appropriate HRP-conjugated secondary antibodies (Life Technologies). The following antibodies were used: human LGALS8 (AF1305, RnD Systems), mouse/rat Lgals8 ([…], Abcam), pSTAT1 (ab29045, Abcam) and STAT1 (ab47425, Abcam), GSTP1 (ab153949, Abcam), ISCU (14812-1-AP, Pointech), Glutathione (ab19534, Abcam), HIF2A (NB100-122, Novous), α-Tubulin (CP06, Millipore sigma), and ACTB (sc-47778, Santa Cruz). The immunoreactive bands were visualized with the Chemidoc XRS+ system (Bio-Rad) using SuperSignal West Femto chemiluminescent substrates (Thermo Fisher Scientific). The images were later quantified using AlphaEaseFC software (Alpha Innotech).

[2] = tested on: PASMCs; assay: BrdU proliferation in PASMCs; format: cell-based, human; details: IL-6/sIL-6R + hypoxia
Description: as §1
(§3) BrdU growth assay: Cell proliferation was assayed relative to day 0 using a BrdU Cell Proliferation Assay Kit (#6813, Cell Signaling) according to the manufacturer's protocol after incubation for 2 h with BrdU.

[3] = tested on: PAECs; assay: RT-qPCR gene expression in PAECs; format: cell-based, human
Description: (§4) The hypoxia chamber (modular incubator chamber) was obtained from Billups-Rothenberg Inc. (Del Mar, Cali) and placed in regulated CO2 incubator at 37° C.
(§5) RT-qPCR analysis: Cells were lysis in 1 ml of QiaZol reagent (Qiagen). Total RNA content was extracted using the RNeasy kit (Qiagen), according to the manufacturer's instructions. Total RNA concentration was determined using a BioTek Synergy multimode plate reader. Messenger RNAs were reverse transcribed to generate cDNA using the Multiscript RT kit (Thermo Fisher Scientific). cDNA for specific gene targets was amplified and quantified via fluorescently-labeled Taqman primer sets and Taqman fast advanced master mix (Thermo Fisher Scientific) using an Applied Biosystems QuantStudio 6 Flex Real-Time PCR System.

[4] = tested on: PAECs; assay: BrdU growth (proliferation) assay in PAECs; format: cell-based, human
Description: as §3

[5] = tested on: glutathione S-transferase (GST); assay: Measurement of GST activity in PASMCs; format: cell-based, human; details: IL-6/sIL-6R + hypoxia, BRD2889 1 uM
Description: as §1

[6] = tested on: PASMCs; assay: Apoptosis (caspase 3/7) in PASMCs; format: cell-based, human; details: IL-6/sIL-6R + hypoxia
Description: as §1
(§6) Cellular apoptosis: Caspase-3/7 activity was quantified using the Caspase-Glo 3/7 Assay (Promega), according to manufacturer's instructions. Caspase-3/7 activity was normalized to total protein content determined by BCA method (Thermo Fisher Scientific).

[7] = tested on: monocrotaline-exposed pulmonary arterial hypertension rats; assay: Monocrotaline (MCT) pulmonary arterial hypertension rat model, dosing Days 12-26
Description: Measurement of GST activity: The GST activity from lung tissue and PAECs was assayed using GST assay kit (Cayman, MI, USA) per the manufacturer's instructions.

[8] = tested on: ISCU; assay: Immunoprecipitation/immunoblot of glutathionylated ISCU in PAECs; format: cell-based, human; set-up: dose or concentration left out as unconfirmed; details: hypoxic PAECs, BRD2889 (24 h)
Description: as §2, with “The immunoreactive bands were visualized with the Chemidoc XRS+ system (Bio-Rad) using SuperSignal West Femto chemiluminescent substrates (Thermo Fisher Scientific).” left out
Immunoprecipitation: PAECs were transfected with the indicated combinations of siRNAs by Lipofectamine 2000 (Thermo Fisher Scientific) according to the manufacturer's instructions and/or treated with BRD2889 ([…], 24 h). […] After extensive washing, the immunoprecipitated proteins were analyzed by immunoblotting with the indicated antibodies.

[9] = tested on: PAECs; assay: Cellular apoptosis, caspase-3/7 activity (Caspase-Glo 3/7) in PAECs; format: cell-based, human
Description: as §4, §6

[10] = tested on: PASMCs; assay: RT-qPCR gene expression in PASMCs; format: cell-based, human; details: hypoxia, BRD2889 5 uM
Excerpt: Cell culture: Primary human pulmonary artery endothelial cells (PAECs) and human pulmonary artery smooth muscle cells (PASMCs) were purchased from Lonza (302-05A, CC-2581). Of note, the same two male donors were the source of all PAECs in the experiments shown. Two additional male donors were the source for all PASMCs in the experiments shown. Cells from these and any donors were characterized by flow cytometry for consistent expression of cell surface markers and by RNA (RT-qPCR) analysis of endothelial and smooth muscle gene expression. PAECs were cultured in EGM-2 media (CC-3121) along with supplements (CC-4133), and PASMCs were cultured in SmGM-2 culture media (Lonza, CC-3182) at 5% CO2 in a humidified incubator.
as §5

[11] = tested on: mitochondrial Complex 1; assay: Mitochondrial Complex 1 activity in PAECs; format: cell-based, human
Description: Measurement of mitochondrial complex activities: Complex 1 activity of isolated mitochondria were measured using Complex 1 Enzyme Activity Microplate assay kit (Abcam, ab109721) according to the manufacturer's protocol. These enzymes were captured within the wells of the microplate coated by the corresponding complex enzyme antibody, and activities were detected colorimetrically.

[12] = tested on: ISCU; assay: Immunoblot and densitometry of ISCU and GSTP1 in PAECs; format: cell-based, human
Description: as §1, §2

[13] = hypoxic PAECs with siRNA knockdown of ISCU
[14] = I-BET762 30 mg/kg daily i.p. or BRD2889 5 mg/kg i.p. every 5 days, Days 12-26
[15] = PAECs, IL-6/sIL-6R + hypoxia, BRD2889 1 uM

Compound: COc1ccc(C#CC2CCCN(C(=O)/C=C/c3cc(OC)c(OC)c(OC)c3)C2=O)cc1 (stereo not shown) [BRD2889, (E)-3-((4-methoxyphenyl)ethynyl)-1-(3-(3,4,5-trimethoxyphenyl)acryloyl)piperidin-2-one]
- GSTP1 protein expression [1]: did not affect
- ISCU protein [1]: failed to rescue ISCU
- proliferation [2]: did not affect
- inflammatory gene transcripts (EDN1, VCAM1, ICAM1) ([3]; IL-6/sIL-6R + hypoxia): normalized this upregulation
- ISCU transcript ([3]; hypoxia 48 hrs, BRD2889 5 uM): fully reversing the hypoxic decrease of ISCU; also recorded: rescued by BRD2889
- expression of C43 genes MID2, BANP, AGTRAP ([3]; hypoxia 48 hrs, BRD2889 5 uM): unaffected in hypoxia by BRD2889
- mTOR transcript ([3]; hypoxia 48 hrs, BRD2889 5 uM): partially reversing the decrease of mTOR; also recorded: rescued by BRD2889
- proliferation (BrdU incorporation) ([4]; PAECs, IL-6/sIL-6R + hypoxia): increased proliferation; also recorded: reversing
- proliferation (BrdU incorporation) ([4]; hypoxic PAECs): reversed the decrease; also recorded: reversed hypoxic alterations
- proliferation (BrdU incorporation) [4, 13]: did not reverse the hypoxia-induced decrease
- GST activity [5]: failed to rescue ISCU or alter GST activity; also recorded: did not affect
- apoptosis [6]: only subtly changed
- endothelial ISCU (immunofluorescence) ([7]; BRD2889 5 mg/kg i.p. every 5 days): increased
- lung GST activity ([7]; BRD2889 5 mg/kg i.p. every 5 days, 5 mg/kg): reduced; also recorded: decreased
- transcript levels of injury markers of liver (Got, Gpt1), kidney (Cst3, Lcn2), intestines (Ldha), tissue toxicity ([7]; BRD2889 vs VC, RT-qPCR): no indication of overt tissue toxicities
- Fulton index (RV/LV+S) [7, 14]: reducing; also recorded: reduced
- arteriolar muscularization (α-SMA) [7, 14]: reducing; also recorded: reduced
- cleaved caspase-3 (CC-3), endothelial apoptosis [7, 14]: reducing; also recorded: decreased
- right ventricular systolic pressure (RVSP) [7, 14]: reducing; also recorded: reduced
- aortic blood pressure (mean arterial pressure, MAP) ([7]; vs vehicle control): without significant alterations
- heart rate ([7]; vs vehicle control): without significant alterations
- ISCU glutathionylation (α-GSH immunoblot after α-ISCU pulldown) [8]: converse reduction of glutathionylation; also recorded: reversed these findings; also recorded: reversal of the hypoxic induction of ISCU glutathionylation
- apoptosis (caspase 3/7 activity) ([9]; PAECs, IL-6/sIL-6R + hypoxia): reduced apoptosis; also recorded: reversing
- apoptosis (caspase 3/7 activity) [9, 13]: did not reverse the hypoxic increase
- apoptosis (caspase 3/7 activity) ([9]; hypoxic PAECs, BRD2889): reversed the increase in apoptosis; also recorded: reversed hypoxic alterations
- ISCU transcript [10]: unaffected by BRD2889
- mTOR transcript [10]: no change in mTOR
- mitochondrial Complex 1 activity ([11]; PAECs, IL-6/sIL-6R + hypoxia): partially rescued mitochondrial Complex 1 activity; also recorded: reversing the IL-6/R+hypoxia-mediated decrease
- mitochondrial Complex 1 activity ([11]; hypoxic PAECs): reversed the decrease; also recorded: reversed hypoxic alterations
- mitochondrial Complex 1 activity [11, 13]: did not reverse the hypoxia-induced decrease
- GSTP1 expression [12, 15]: without altering GSTP1 expression
- ISCU expression (immunoblot) [12, 15]: reversed the decrease in ISCU expression; also recorded: reversed the IL-6/R+hypoxic decrease
- GSTP1 expression ([12]; hypoxic PAECs): did not affect GSTP1 expression
- ISCU protein levels ([12]; hypoxic PAECs): reversed hypoxia-dependent reduction of ISCU protein levels; also recorded: ISCU levels were increased; also recorded: reversed hypoxic alterations; also recorded: reversed these findings; also recorded: also reversed the hypoxia-induced reduction of ISCU
